Source: patent US20240197666A1, “DITERPENOID COMPOUNDS THAT ACT ON PROTEIN KINASE C (PKC)” (K-Gen Therapeutics, Inc., priority 2021, published 2024)
Like-named read-outs stand apart in the source and are kept apart here.

Tests used:
Mino (Lymphoma) = test: Proliferation of Mino; assay type: cell-based
How it was run: (§1)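 Cells seeded per line (KP-4 800-1000, Panc2.13 3000, Namalwa and Mino 5000-10000 cells/well), 24 h at 37° C, then 96 h with 3-fold serial dilutions of compound, final DMSO ≤0.25%. CellTiter Glo luminescence read; % inhibition vs DMSO-only max, IC50 fitted. Potency also normalized as ratio to comparator K101 across batches.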

PANC1 cells = test: Sphere formation assay; assay type: cell-based; conditions: Homo sapiens, PANC-1, read-out: concentration exhibiting at least 50% inhibition on the sphere forming efficiency
Procedure: A group of diterpenoid compounds of the present disclosure were tested to assess their effects on blocking formation of spheres from cancer cell lines such as PANC1, a K-Ras mutant pancreatic cell line. Briefly, PANC1 cells were harvested, re-suspended as single cell suspensions, counted and seeded into Ultra Low Attachment Culture 96-well plate (Corning, Cat #3474) at 100 cells/well in 100 μl of complete media (with 10% FBS) containing 2% Matrigel (Corning, Cat #354234) and DMSO or compounds. Six replicates per condition were seeded. The seeded cells were placed in the 37° C. tissue culture incubator. 10 μl of low serum containing media (with 0.1% FBS) was added to each well every week. Spheres formed after 3-4 weeks were counted. Sphere forming efficiency was expressed as percentage of # of spheres/ # of cells seeded.

KP-4 (Pancreatic) = test: Proliferation of KP-4; assay type: cell-based; conditions: read-out: IC50 KP-4 (Pancreatic)
Procedure: (§2) The diterpenoid compounds were tested in A549, a non-small cell lung cancer cell line harboring a K-Ras activating mutation. Briefly, A549 cells at a density of 1,000 cells/well were seeded in 96-well plates and incubated at 37° C. for 24 hours. A series of different concentrations of compound stocks (500×) were prepared by 3-fold serial dilution in DMSO. These compounds were further diluted in culture media and then added to cells so that the final DMSO concentration was not exceeding 0.25%. After 96 hours of incubation, 50 μL of CellTiter Glo reagent (Promega) was added to each well and luminescence was measured after 10 minutes using EnVision (PerkinElmer). Luminescence from cells treated with DMSO alone was set as Max and % of inhibition was calculated as follows: Inhibition %=(Max-Sample value)/Max×100. Data was analyzed using XL-fit software (ID Business Solutions Ltd.) and IC50, relative IC50, and % of top inhibition was calculated. Some of the compounds in this disclosure were very potent in blocking proliferation of A549 lung cancer cells at low nM range. In addition, potency of inhibiting A549 proliferation correlated well with its binding affinity to PKCs for this series of compounds. In other words, higher affinity binders had stronger inhibitory effects on A549 proliferation. This further support the notion that activation, rather than inhibition, of certain PKC isoforms is required to block proliferation of cancer cells, some of which may harbor K-Ras mutations. This is in sharp contrast to previous literature and common belief that inhibition of PKC is necessary to block cancer cell growth (Kang, 2014, New Journal of Science, 2014:1-36). Data presented here is in agreement with recent findings that many loss-of-function but not gain-of-function mutations of PKC isoforms have been identified in many human cancers (Antal et al., 2015, Cell, 160:489-502).
(§3) The compounds in this disclosure were tested for their potency in blocking proliferation of a few other cancer cells lines, including K-Ras mutant pancreatic cell lines Panc2.13 and KP-4, leukemia cell line HL-60, and lymphoma cell lines Namalwa and Mino. Similar procedures as in Example 67 were followed. Initial cell numbers seeded in 96-well plates were different for different cell lines: 3000 cells/well for Panc2.13; 800-1000 cells/well for KP-4; 5000 cells/well for HL-60; 5000-10000 cells/well for Namalwa and Mino. A ratio of (IC50 of K101)/(IC50 of compound) (data in parenthesis in Table 5) was used to normalize the compound potency from different assay batches to a common comparator K101.

[1] = system: NFκB-driven transcription in HeLa-NFκB luciferase reporter cell line; test: NFκB luciferase reporter assay; conditions: Homo sapiens, HeLa, 16 h, read-out: NFκB-luc HeLa cells EC50 (μM)
Namalwa (Lymphoma) = test: Proliferation of Namalwa; assay type: cell-based
How it was run: as §1

HL-60 (Leukemia) = test: Proliferation of HL-60; assay type: cell-based
C1b domain of human PKCδ = target: T1, C1b domain of human PKCδ (Homo sapiens, UniProt Q05655); test: biochemical; assay type: binding; conditions: 3H-PDBu competition
T1 construct: Genes encoding C1b domains of human PKCα, δ, ε, θ, and PKD1 (PKCμ) were synthesized; made in house; host or cells: E. coli BL21(DE3)
T1 sequence (Q05655 230-280 limits assumed): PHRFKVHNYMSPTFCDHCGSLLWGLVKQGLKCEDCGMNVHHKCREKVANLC
How it was run: (§4)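 Affinity was measured by competition with the radiotracer 3H-PDBu for recombinant human GST-C1b fusion proteins expressed in E. coli BL21(DE3). Incubation ran 10 minutes at 37° C with shaking, then 20 minutes on ice, and filter-trapped 3H-PDBu was counted by scintillation. IC50 values were converted to Ki by Cheng-Prusoff using the experimentally determined Kd for each protein preparation.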

C1b domain of human PKCε = target: T2, C1b domain of human PKCε (Homo sapiens, UniProt Q02156); test: biochemical; assay type: binding; conditions: 3H-PDBu competition
T2 construct: Genes encoding C1b domains of human PKCα, δ, ε, θ, and PKD1 (PKCμ) were synthesized; made in house; host or cells: E. coli BL21(DE3)
T2 sequence (Q02156 242-292 limits assumed): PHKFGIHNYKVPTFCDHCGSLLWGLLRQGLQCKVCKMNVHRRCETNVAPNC
How it was run: as §4

Panc2.13 (Pancreatic) = test: Proliferation of Panc2.13; assay type: cell-based
Procedure: as §2, §3

A549 cell line = test: Proliferation of A549 (CellTiter Glo); assay type: cell-based; conditions: Homo sapiens, read-out: IC50 μM (A549 Cell Line)
How it was run: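 A549 cells (K-Ras-mutant NSCLC) were seeded at 1,000 cells/well, allowed 24 h to settle, then exposed for 96 h to 3-fold serially diluted compound (final DMSO ≤0.25%). CellTiter Glo luminescence was read, and inhibition was calculated relative to DMSO-only wells. IC50, relative IC50 and % top inhibition came from curve fitting.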

[2] = system: phosphorylation of PKCμ, PKCδ and Erk1/2 in A549 lung cancer cells; test: Western blot of activation of PKC and downstream target protein in A549 cells; assay type: cell-based; conditions: 3 μM, 30 minutes
Procedure: According to the methods described in patent (WO/2017/083783) A549 lung cancer cells (˜3 million cells) were seeded in 10 cm tissue culture dishes (or ˜1 million cells in 6 cm dish) and grown overnight. Cells were then treated with different drugs at indicated concentrations for 30 minutes. Cell lysate preparation, protein quantitation, SDS-PAGE, and Western blotting procedures are described (WO/2017/083783). β-actin or Vinculin was used as loading controls. Imagequant LAS4000 (GE) was used to scan membranes if secondary antibodies anti-mouse IgG HRP conjugate or anti-rabbit IgG HRP conjugate (dilutions from 1:2000-1:10000) were used. For ProteinSimple Wes system, manufacture's procedure was followed (ProteinSimple 12-230 kDa Wes Separation Module) for sample preparation, loading, running, and data analysis.
Phosphorylation of these sites has been linked to acute activation or catalytic activity of the PKC isoforms and Erk1/2. High level of phosphorylation indicates strong activation.
A subset of the diterpenoid compounds with good binding affinity to novel PKC isoforms and PKCμ was tested at two different concentrations in A549 cells to assess activation of PKCμ, PKCδ, and Erk1/2 by Western blot analysis. In addition to the phospho-specific antibodies described above, an additional phospho-specific antibody P-PKCδ (S299) (Abcam cat #133456) was also used. This antibody has been shown in the literature (Durgan et al., FEBS Lett. 2007, 581(18):3377-81, Novel phosphorylation site markers of protein kinase C delta activation) to be able to detect activation of PKCδ. K-101 (prostratin, 1 μM) was included as reference compounds.

C1b domain of human PKCα = target: T3, C1b domain of human PKCα (Homo sapiens, UniProt P17252); test: biochemical; assay type: binding; conditions: 3H-PDBu competition
T3 construct: Genes encoding C1b domains of human PKCα, δ, ε, θ, and PKD1 (PKCμ) were synthesized; made in house; host or cells: E. coli BL21(DE3)

[3] = target: T4, C1b domain of human PKD1 (PKCμ) (Homo sapiens, UniProt Q15139); test: Competitive 3H-PDBu binding assay, C1b domain of PKD1 (PKCμ); conditions: 3H-PDBu competition
T4 construct: Genes encoding C1b domains of human PKCα, δ, ε, θ, and PKD1 (PKCμ) were synthesized; made in house; host or cells: E. coli BL21(DE3)
T4 sequence (Q15139 270-320 limits assumed): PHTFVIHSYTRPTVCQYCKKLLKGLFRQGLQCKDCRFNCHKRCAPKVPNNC
Procedure: Compounds described in this disclosure were tested for binding affinity to C1b domain of PKC isoforms. Compound binding affinity to C1b domain of PKC isoforms was derived from competitive binding assay using radioactive tracer ^3H-PDBu and recombinant GST-C1b or full-length of human PKC proteins based on modified procedures from Methods in Molecular Biology, vol.
Genes encoding C1b domains of human PKCα, δ, ε, θ, and PKD1 (PKCμ) were synthesized and inserted into pGEX-2TK or pGEX-4T1 vectors for expression and production of GST-C1b proteins in E. coli BL21(DE3) via IPTG induction. The target proteins were purified by glutathione sepharose 4B and followed by ion exchange chromatography if needed to achieve purity >70%. Aliquots of the purified proteins were stored at −80 degree for binding assay (storage buffer: 20 mM Tris pH 8.0, 200 mM NaCl, 10% glycerol, 1 mM DTT).
The plate was incubated at 37° C. on a shaker at 300 rpm for 10 minutes and then put on ice for 20 minutes. […] The bottom of the filter plate was sealed and 50 μL of MicroScint-20 (PerkinElmer) cocktail was added to each well. ^3H-PDBu trapped in each well was counted using PerkinElmer MicroBeta2 Reader. Data were analyzed using GraphPad Prism5 with the model “log(inhibitor) vs. response-variable slope” to fit the IC50, and then IC50 was transformed to Ki using Cheng-Prusoff equation: Ki=IC50/(1+added radio ligand/Kd). Kd is the binding affinity of each protein preparation to ^3H-PDBu, determined experimentally.

CC1=C[C@H]2[C@@]3(O)[C@H](C)C[C@]4(OC(=O)C(C)(C)C)[C@H]([C@@H]3C=C(CO)C[C@]2(O)C1=O)C4(C)C
ratio (IC50 of K101)/(IC50 of compound) Mino (Mino (Lymphoma)): 6.82
IC50 (Mino (Lymphoma); Homo sapiens, MINO, read-out: IC50 Mino (Lymphoma)): 10 to 30 nM
IC50 (PANC1 cells): ≤ 150 nM
IC50 (KP-4 (Pancreatic)): 100 to 200 nM
EC50 [1]: 0.06 to 0.1 µM
ratio (IC50 of K101)/(IC50 of compound) Namalwa (Namalwa (Lymphoma)): 1.38
IC50 (Namalwa (Lymphoma); read-out: IC50 Namalwa (Lymphoma)): 30 to 60 nM
ratio (IC50 of K101)/(IC50 of compound) HL-60 (HL-60 (Leukemia)): 5.29
IC50 (HL-60 (Leukemia); Homo sapiens, HL-60, 96 h, read-out: IC50 HL-60 (Leukemia)): 100 to 600 nM
Ki (C1b domain of human PKCδ): 10 to 30 nM
Ki (C1b domain of human PKCε): 10 to 30 nM
ratio (IC50 of K101)/(IC50 of compound) Panc2.13 (Panc2.13 (Pancreatic)): 6.29
IC50 (Panc2.13 (Pancreatic); read-out: IC50 Panc2.13 (Pancreatic)): 100 to 200 nM
IC50 (A549 cell line; A549, 96 h): 0.06 to 0.1 µM

CC1=C[C@H]2[C@@]3(O)[C@H](C)C[C@]4(OC(=O)CCc5ccncc5)[C@H]([C@@H]3C=C(CO)C[C@]2(O)C1=O)C4(C)C
phosphorylation of PKCμ, PKCδ and Erk1/2 [2]: induced phosphorylation
IC50 (A549 cell line; A549, 96 h): 1 to 2 µM

CC1=C[C@H]2[C@@]3(O)[C@H](C)C[C@]4(OC(=O)CCc5ccccn5)[C@H]([C@@H]3C=C(CO)C[C@]2(O)C1=O)C4(C)C
phosphorylation of PKCμ, PKCδ and Erk1/2 [2]: induced phosphorylation
IC50 (A549 cell line; A549, 96 h): 0.6 to 1 µM

CC1=C[C@H]2[C@@]3(O)[C@H](C)C[C@]4(OC(=O)[C@@H](N)C/C=C/c5ccccc5)[C@H]([C@@H]3C=C(CO)C[C@]2(O)C1=O)C4(C)C
Ki (C1b domain of human PKCα): 100 to 200 nM
Ki [3]: < 5 nM
Ki (C1b domain of human PKCδ): 5 to 10 nM
IC50 (A549 cell line; A549, 96 hours, CellTiter Glo): 0.06 to 0.1 µM
